Format in all cases: in vivo
In assay [1] the test system is Lolium multiflorum (LOLMU). As to the kind of experiment: Pre-emergence herbicidal test, % visual injury. The settings on record: 336 h, rate 1000 g/ha, 14±1 days post-emergence in untreated plots. The procedure:
(§1) Pre-emergence testing was also performed using the same test species grown in a sandy loam soil mixture, Lolium multiflorum (LOLMU), Amaranthus retroflexus (AMARE), Echinochloa crus-galli (ECHCG), Veronica persica (VERPE).
(§2) After sowing, at growth stage BBCH 00-07 (pre-emergence), the plants are sprayed with an aqueous spray solution derived from the formulation of the technical active ingredient in acetone/water (50:50) solution containing 0.5% Tween 20 (polyoxyethlyene sorbitan monolaureate, GAS RN 9005-64-5). The test compounds are applied at the required […] concentration of active ingredient in g/ha. The test plants are then grown in a glasshouse under controlled environmental conditions and watered regularly as required. After 14±1 days post-emergence in untreated plots (for the pre-emergence test), the test is evaluated by assessing the percentage damage caused to the plants in comparison with the untreated plots. The biological activities for pre-emergence testing are shown below (Table 4) in the following table as a % visual injury.

Assay [2] deals with Veronica persica (VERPE). As to the kind of experiment: Pre-emergence herbicidal test, % visual injury. The settings on record: 336 h, rate 1000 g/ha, 14±1 days post-emergence in untreated plots. The procedure:
as §1, §2

Assay [3] relates to Echinochloa crus-galli (ECHCG). As to the kind of experiment: Pre-emergence herbicidal test, % visual injury. The settings on record: 336 h, rate 1000 g/ha, 14±1 days post-emergence in untreated plots. The method, then: as §1, §2
The test system of assay [4] is Lolium multiflorum (LOLMU). As to the kind of experiment: Post-emergence herbicidal test, % visual injury. The settings on record: 336 h, rate 500 g/ha, 14±1 days post application. The method, then:
(§3) Seeds of a variety of test species are grown in a sandy loam soil mixture, Lolium multiflorum (LOLMU), Amaranthus retroflexus (AMARE), Echinochloa crus-galli (ECHCG), Veronica persica (VERPE).
(§4) After sowing, at growth stage BBCH 12-14 (post-emergence), the plants are sprayed with an aqueous spray solution derived from the formulation of the technical active ingredient in acetone/water (50:50) solution containing 0.5% Tween 20 (polyoxyethlyene sorbitan monolaureate, CAS RN 9005-64-5). The test compounds are applied at the required concentration of active ingredient in g/ha. The test plants are then grown in a glasshouse under controlled environmental conditions and watered regularly as required. After 14±1 days post application (for post-emergence test), the test is evaluated by assessing the percentage damage caused to the plants in comparison with the untreated plots. The biological activities for post-emergence testing are shown below (Table 3) as a % visual injury.

In assay [5] the test system is Amaranthus retroflexus (AMARE). As to the kind of experiment: Post-emergence herbicidal test, % visual injury. The settings on record: 336 h, rate 500 g/ha, 14±1 days post application. The method, then: as §3, §4
Assay [6] concerns Veronica persica (VERPE). As to the kind of experiment: Post-emergence herbicidal test, % visual injury. The settings on record: 336 h, rate 500 g/ha, 14±1 days post application. The method, then:
as §3, §4

For assay [7], the system named is Echinochloa crus-galli (ECHCG). As to the kind of experiment: Post-emergence herbicidal test, % visual injury. The settings on record: 336 h, rate 500 g/ha, 14±1 days post application. The procedure: as §3, §4

Molecules are shown by their SMILES.

With `CC(Oc1ccc(F)cc1Cl)C(=O)Nc1nnc(C(F)(F)F)[nH]1` (stereo not shown) [Compound 32], the pest or weed control at 1000 g/ha was determined as 0% in assay [1], 5% in the assay with Veronica persica (VERPE) [2] and 0% in assay [3].
On to `O=C(CCCOc1ccc(F)cc1Cl)Nc1nnc(C(F)(F)F)[nH]1` [Compound 30, 4-(2-chloro-4-fluorophenoxy)-N-[5-(trifluoromethyl)-4H-1,2,4-triazol-3-yl]butanamide], for which the pest or weed control at 1000 g/ha in assay [1] was 60%; with Veronica persica (VERPE) [2], 0%; in assay [3] it was 0%. Besides, the pest or weed control at 500 g/ha came to 70% in assay [4], 80% in assay [5], 60% with Veronica persica (VERPE) [6] and 30% in assay [7].
Take `O=C(CCCOc1ccc(Cl)cc1Cl)Nc1nnc(C(F)(F)F)[nH]1` [Compound 28, 4-(2,4-dichlorophenoxy)-N-[5-(trifluoromethyl)-4H-1,2,4-triazol-3-yl]butanamide]: the values for the pest or weed control at 1000 g/ha (in assay [1]; in the assay with Veronica persica (VERPE) [2]; in assay [3]) were 40%, 0% and 0%, respectively. In addition, the pest or weed control at 500 g/ha is 0% in assay [4], 70% in assay [5], 60% with Veronica persica (VERPE) [6] and 10% in assay [7].
As to `Cc1nnc(NC(=O)COc2ccc(F)cc2Cl)o1` [Compound 26], the pest or weed control at 1000 g/ha was 50% in assay [1], 0% with Veronica persica (VERPE) [2] and 30% in assay [3]. Besides, the pest or weed control at 500 g/ha came to 50% in assay [4], 90% in assay [5], 95% in the assay on Veronica persica (VERPE) [6] and 90% in assay [7].
As for `O=C(COc1cc(Cl)c(Cl)cc1Cl)Nc1nnc(C(F)(F)F)[nH]1` [Compound 39], the pest or weed control at 500 g/ha in assay [4] turned out to be 0%; in assay [5] it was 80%; in the assay on Veronica persica (VERPE) [6], 50%; in assay [7], 0%.
With `Cn1ccc2c(OCC(=O)Nc3nc(C(F)(F)F)n[nH]3)cccc21` [Compound 91], the pest or weed control at 500 g/ha in assay [4] is 0%; in assay [5], 0%; in the assay on Veronica persica (VERPE) [6], 70%; in assay [7], 0%.
With `Cc1ccccc1OCCCC(=O)Nc1nnc(C(F)(F)F)[nH]1` [Compound 89], the pest or weed control at 500 g/ha in assay [4] came out at 0%; in assay [5], 40%; in the assay with Veronica persica (VERPE) [6], 95%; in assay [7] it was 0%.
For `O=C(COc1ccc(F)cc1Cl)Nc1nnc(C(F)F)[nH]1` [Compound 14], the pest or weed control at 500 g/ha in assay [4] turned out to be 60%; in assay [5], 100%; with Veronica persica (VERPE) [6], 60%; in assay [7] it was 90%.
Turning to `O=C(COc1ccc(Br)cc1F)Nc1nnc(C(F)(F)F)[nH]1` [Compound 17], the pest or weed control at 500 g/ha in assay [4] was found to be 0%; in assay [5], 60%; in the assay with Veronica persica (VERPE) [6], 70%; in assay [7] it was 0%.
On to `O=C(COc1ccc(F)c(Cl)c1)Nc1nnc(C(F)(F)F)[nH]1` [Compound 5], for which the pest or weed control at 500 g/ha in assay [4] is 0%; in assay [5], 80%; with Veronica persica (VERPE) [6], 98%; in assay [7], 30%.
In the same order, the values of `CC(C)c1nnc(NC(=O)COc2ccc(F)cc2Cl)[nH]1` [Compound 23, 2-(2-chloro-4-fluorophenoxy)-N-[5-(propan-2-yl)-4H-1,2,4-triazol-3-yl]acetamide] are 40%, 100%, 100% and 90%.

In general, pest or weed control refers to the degree to which the test organism was suppressed or injured, in per cent.

The values above are taken from US20230255205A1, “HERBICIDAL HETEROCYCLIC DERIVATIVES” (MoA Technology Limited, priority 2020, published 2023).
